This note sets out measurements from BindingDB's records for patent US20240199605 (Janssen Pharmaceutica, 2024).

This experiment concerns the target Mitogen-activated protein kinase kinase kinase 14 (Homo sapiens, UniProt Q99558). The experiment is described as follows: Inhibition of auto-phosphorylation of recombinant human NF-kappaB-inducing kinase (NIK/MAP3K14) activity (AlphaScreen). Here is the method:
All compounds tested were dissolved in dimethyl sulfoxide (DMSO) and further dilutions were made in assay buffer. The final DMSO concentration was 0.7% (v/v) in assays. […] The assays were carried out in 384 well Proxiplates (Perkin Elmer).

Mitogen-activated protein kinase kinase kinase 14, sequence (Q99558 whole entry): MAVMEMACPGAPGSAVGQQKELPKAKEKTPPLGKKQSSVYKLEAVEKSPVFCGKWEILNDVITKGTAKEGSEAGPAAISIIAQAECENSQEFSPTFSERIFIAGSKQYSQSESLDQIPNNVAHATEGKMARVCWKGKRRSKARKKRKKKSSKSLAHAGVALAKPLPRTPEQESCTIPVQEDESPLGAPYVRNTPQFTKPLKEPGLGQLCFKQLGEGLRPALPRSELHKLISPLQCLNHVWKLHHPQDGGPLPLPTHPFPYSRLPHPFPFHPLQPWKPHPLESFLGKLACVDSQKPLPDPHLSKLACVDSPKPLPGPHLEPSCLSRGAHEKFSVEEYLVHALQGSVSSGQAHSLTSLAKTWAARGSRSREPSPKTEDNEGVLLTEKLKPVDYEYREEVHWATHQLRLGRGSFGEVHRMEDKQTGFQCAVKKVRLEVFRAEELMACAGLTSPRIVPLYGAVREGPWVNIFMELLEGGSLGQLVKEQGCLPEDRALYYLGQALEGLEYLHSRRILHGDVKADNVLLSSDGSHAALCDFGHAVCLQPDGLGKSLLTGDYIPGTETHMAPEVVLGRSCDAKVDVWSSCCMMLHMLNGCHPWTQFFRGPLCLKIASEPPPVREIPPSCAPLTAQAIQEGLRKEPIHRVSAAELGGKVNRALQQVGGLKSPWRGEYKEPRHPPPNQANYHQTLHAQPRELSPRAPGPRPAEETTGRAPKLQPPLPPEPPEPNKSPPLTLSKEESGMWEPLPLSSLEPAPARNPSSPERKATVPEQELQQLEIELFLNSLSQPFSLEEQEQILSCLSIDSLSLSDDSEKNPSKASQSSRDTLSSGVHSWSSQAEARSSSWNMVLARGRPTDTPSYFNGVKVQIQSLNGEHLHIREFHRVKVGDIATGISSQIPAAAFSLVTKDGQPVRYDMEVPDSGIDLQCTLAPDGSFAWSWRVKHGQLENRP

As for `Cc1cc(C#C[C@]2(O)CCN(C)C2=O)cc(-c2nc3c(N)ncnc3s2)c1` [US20240199605, Example 153], the half-inhibitory concentration (IC50) (as a rule, the point on the concentration scale where inhibition reaches its midpoint) came out at 0.8 nM.
